Key:
fungi = settings: wide variety of fungi; cited from earlier work
[1] = Stability of DITS in a generic shampoo matrix after storage at 40° C. for 8 weeks, by HPLC; assay type: physicochemical
Method: All analytical data were obtained by high performance liquid chromatography (“HPLC”) analysis for content for diiodomethyl-p-tolylsulfone (DITS) and monoiodomethyl-p-tolylsulfone (MITS). Analysis was done on an Agilent HP system using a Phenomenex Bondclone 10 micron C18 reverse phase column (300×3.9 mm, 10 microns) at a flow rate of 2 mL/min, isocratic 55% acetonitrile in water for 17 min. Under these conditions DITS elutes at 3.9-4.3 min and MITS elutes at 2.9-3.3 min, depending on the shampoo matrix. […]
To a 250 mL glass jar were added 24.81 g water and 0.2526 g SL 400. The mixture was stirred vigorously for 1.5 h. Then, 1.0302 g milled AMICAL™ diiodomethyl-para-tolylsulfone was added, and the mixture was stirred for an additional 1.5 hours. After that, the premix was heated to 68° C. in a hot water bath, and a pre-blended mixture of Standapol* EA-3 (32.98 g), Standapol* A (11.16 g), and LAA (16.70 g) was added with agitation. 12.9 g of DI water was added next, and stirring was continued in the hot water bath. After 10 min, […] to adjust the pH. After an additional 10 min, the temperature of the mixture was recorded (68° C.) and the heating was stopped. The mixture was stirred on high speed for another hour, until it cooled. At that point, 0.31 g Glydant* and 0.30 g fragrance were added, and the sample was adjusted with water to 100 g formulation. Stirring continued for another hour. […]
This procedure was followed for all the polymers listed in Table 1, at the stated polymer concentration. In all cases, AMICAL™ 48 milled to a D50=2 microns was used (diiodomethyl-p-tolylsulfone content 92.5%). Detailed here is the example involving SOFTCAT™ SL 400 at 0.25% concentration.
To a 250 mL glass jar were added 24.82 g water and 0.2644 g SOFTCAT™ SL 400. The mixture was stirred vigorously for 1.5 h. Separately, in a 250 mL beaker were combined Standapol* EA-3 (33.57 g), Standapol* A (11.08 g), and LAA (16.13 g). The mixture was stirred vigorously using an overhead stirrer, and after 10 min, 1.0120 g milled DITS (AMICAL™ 48) was added, followed by 5.0 g water. The DITS-surfactant blend was stirred for 1.25 hours. After that, the DITS—surfactant blend was added with agitation to the polymer solution which had been heated to 58° C. in a hot water bath. 8.12 g of deionized water was added next, and stirring was continued in the hot water bath. After 10 min, 1 mL of a 10% aqueous citric acid solution was added to adjust the pH. After an additional 15 min, the temperature of the mixture was recorded (58° C.) and the heating was stopped. The mixture was stirred on high speed for another hour, until it cooled. At that point, 0.44 g Glydant* and 0.3 g fragrance were added, and the sample was adjusted with water to 100 g formulation. […]

[2] = cited from earlier work

In the case of `Cc1ccc(S(=O)(=O)C(I)I)cc1` [DITS, diiodomethyl-para-tolylsulfone], the minimum inhibitory concentration (fungi) is given as “less than 10 ppm”, the “DITS content after storage (HPLC)” value ([1]; Example 4, no polymer control, 8 week at 40° C.) is given as 0.44% and the “DITS content at time zero (HPLC)” value ([1]; Example 4, no polymer control, time zero) is given as 1.02%. The decomposition ([1]; control samples formulated without polymer, shampoo matrix, 8 weeks at 40° C.) was about 60%, the “% DITS left when added to surfactant blend” value ([1]; generic shampoo matrix, 40° C. for 8 weeks, no polymer (control, Example 4)) was 43.2% and the water solubility [2] was “less than 10 ppm”.

— US20060135472A1, “Use of water-soluble polymers to improve stability of diiodomethyl-para-tolylsulfone in complex matrices” (priority 2004, published 2006)
